The assay deals with T1, mushroom tyrosinase.
T1 construct: gene PPO3
In words: L-DOPA oxidation, absorbance at […] nm after […] min. The class given is biochemical. The conditions noted are these: 0.1 M L-DOPA solution (300 µL in 610 µL assay), 0.05 M phosphate pH 6.8, room temperature, 10 min preincubation.

≈ marks a conversion by molar mass, not a printed value.

For orientation: IC50 means the midpoint of a concentration-inhibition curve. A lower IC50 goes with higher potency. The compound `C[C@@H]1O[C@@H](OC[C@H]2O[C@@H](Oc3c(-c4ccc(O)c(O)c4)oc4cc(O)cc(O)c4c3=O)[C@H](O)[C@@H](O)[C@@H]2O)[C@H](O)[C@H](O)[C@H]1O` [rutin] registered an IC50 of 5.38 µg/mL (≈ 8.81 µM).

Source of the values: publication PMC11429051, “The Effect of Maturity Stage on Polyphenolic Composition, Antioxidant and Anti-Tyrosinase Activities of Ficus rubiginosa Desf. ex Vent. Extracts” (Antioxidants, 2024).
